According to US11760773B2, “Small molecule drug conjugates of gemcitabine monophosphate” (MaveriX Oncology, Inc., priority 2018, dated 2023):

Legend:
[1] = Metabolic stability in liver hepatocytes, dog; assay type: in vitro ADME
[2] = test system: UT-SCC-16B; experiment: Tumor cell proliferation (alamarBlue) cytotoxicity assay, UT-SCC-16B; assay type: cell-based, human; conditions: Homo sapiens, 72 hours treatment
Procedure: (§1) A tumor cell proliferation assay was used to determine cytotoxicity IC50 values for the phosphate prodrug Compounds 1-9, the parent non-phosphorylated SMDC parent compounds, and the effector (gemcitabine) across eight primary early-passage human head and neck squamous cell carcinoma cell lines including UT-SCC-5, UT-SCC-8, UT-SCC-9, UT-SCC-10, UT-SCC-14, UT-SCC-16A, UT-SCC-16B, and UT-SCC-24A.
(§2) UTSCC cells were seeded at 4000 cells/100 I/well on 96-well black clear-bottom tissue culture plate. Cells were incubated at 37° C. and 5% CO2 overnight to allow them to recover and re-attach. The next day cells were treated with the test compound (0-100 μM) for 72 hours. After treatment, cell proliferation was measured by Fluorescent quantitation of alamarBlue reagent. The alamarBlue assay incorporates a fluorometric/colorimetric growth indicator based on detection of metabolic activity. Specifically, resazurin, the active ingredient of alamarBlue reagent, is blue in color and virtually non-fluorescent. Upon entering cells, resazurin is reduced to resorufin, a compound that is red in color and highly fluorescent.
(§3) Continued cell growth maintains a reduced environment, therefore increasing the overall fluorescence and color of the media surrounding cells. The fluorescence intensity of alamarBlue reagent was directly proportional to cell number. To perform the alamarBlue assay, 10 I of alamarBlue reagent was added to each well and the plate was incubated at 37° C. for an additional 2 hour. Fluorescence intensity was measured at an excitation of 530 nm and an emission of 590 nm using a BioTek Synergy™ 2 microplate reader.
(§4) Cell proliferation assays in triplicate were performed at each concentration. The fluorescent intensity data were analyzed using the computer software, Graphpad Prism. In the absence of the compound, the fluorescent intensity (Ft) in each data set was defined as 100%. In the absence of cells, the fluorescent intensity (Fb) in each data set was defined as 0%. The percent cell in the presence of each compound was calculated according to the following equation: % cell=(F−Fb)/(Ft−Fb), where F=the fluorescent intensity in the presence of the compound, Fb=the fluorescent intensity in the absence of cells, and Ft=the fluorescent intensity in the absence of the compound. The values of % cell versus a series of compound concentrations were then plotted using non-linear regression analysis of Sigmoidal dose-response curve generated with the equation Y=B+(T−B)/1+10^((Log EC50-X)×Hill Slope) where Y=percent cell, B=minimum percent cell, T=maximum percent cell, X=logarithm of compound and Hill Slope=slope factor or Hill coefficient. The IC50 value was determined by the concentration causing a half-maximal percent activity.

[3] = test system: UT-SCC-10; experiment: Tumor cell proliferation (alamarBlue) cytotoxicity assay, UT-SCC-10; assay type: cell-based, human; conditions: Homo sapiens; UT-SCC-10, 72 hours treatment
Procedure: as §1, §2, §3, §4

[4] = Metabolic stability in liver hepatocytes, mouse; assay type: in vitro ADME; conditions: for half-life: read-out: t1/2 mean ± SE
[5] = test system: UT-SCC-24A; experiment: Tumor cell proliferation (alamarBlue) cytotoxicity assay, UT-SCC-24A; assay type: cell-based, human; conditions: Homo sapiens, 72 hours treatment
Procedure: as §1, §2, §3, §4

[6] = Liver microsomal stability, rat; assay type: in vitro ADME; conditions: rat liver microsomes
[7] = Human plasma stability; assay type: in vitro ADME
Procedure: Method: Assay was carried out in 96-well microtiter plates. Compounds were incubated in replicates (n=2) for 0, 5, 15, 30, and 45 minutes at 37° C. Reaction mixtures (20 μL) contained a final concentration of 3 μM test compound in human plasma. Eucatropine included as positive control to verify assay performance. Linear regression of semi-log plot of % remaining of compounds versus time used to determine the half-life t½ values.

[8] = CD-1 mouse plasma stability; assay type: in vitro ADME
Procedure: Method: Assay was carried out in 96-well microtiter plates. Compounds were incubated in replicates (n=2) for 0, 5, 15, 30, and 45 minutes at 37° C. Reaction mixtures (20 μL) contained a final concentration of 3 μM test compound in fresh CD-1 mouse plasma. Eucatropine included as positive control to verify assay performance. Linear regression of semi-log plot of % remaining of compounds versus time used to determine the half-life t1/2 values.

[9] = Liver microsomal stability, dog; assay type: in vitro ADME; conditions: dog liver microsomes
[10] = Dog liver S9 stability; assay type: in vitro ADME; conditions: for microsomal CLint: dog
[11] = Rat liver S9 stability; assay type: in vitro ADME; conditions: for microsomal CLint: rat
[12] = Rat plasma stability; assay type: in vitro ADME
Procedure: Method: Assay was carried out in 96-well microtiter plates. Compounds were incubated in replicates (n=2) for 0, 5, 15, 30, and 45 minutes at 37° C. Reaction mixtures (20 μL) contained a final concentration of 3 μM test compound in fresh Sprague Dawley rat plasma. Eucatropine is a positive control to verify assay performance. Linear regression of semi-log plot of % remaining of compounds versus time used to determine the half-life t1/2 values.

[13] = Monkey liver S9 stability; assay type: in vitro ADME; conditions: for microsomal CLint: monkey
[14] = Mouse liver S9 stability; assay type: in vitro ADME; conditions: for microsomal CLint: mouse

For Nc1ccn([C@@H]2O[C@H](CO)[C@@H](O)C2(F)F)c(=O)n1 [Gemcitabine, gemcitabine], the “Slope Mean ± SE” value [1] was 0.000126 ± 0.001156, the IC50 [2] was 99 nM and the IC50 [3] was 9 nM. For the same compound, the “Slope Mean ± SE” value [4] was −0.000512 ± 0.001111, the half-life [4] was 22.5 ± 48.9 h and the IC50 [5] was 14 nM.
Work on COc1cc(OC)c2oc(COC(=O)Nc3ccn([C@@H]4O[C@H](CO)[C@@H](O)C4(F)F)c(=O)n3)cc2c1 [Int 1-4, (5,7-di(methoxy)benzofuran-2-yl)methyl (1-((2R,4R,5R)-3,3-difluoro-4-hydroxy-5-(hydroxymethyl)tetrahydrofuran-2-yl)-2-oxo-1,2-dihydropyrimidin-4-yl)carbamate] yielded a CLint [6] of 297 μL/min/mg protein, a half-life [6] of 4.66 min and a microsomal CLint [6] of 297 µL/min/mg. The “Compound Remaining (% of 0 min) 0 min” value ([6]; 0 min) was 100 % of 0 min, the “Compound Remaining (% of 0 min) 5 min” value ([6]; 5 min) was 64.7 % of 0 min and the “Compound Remaining (% of 0 min) 15 min” value ([6]; 15 min) was 20.0 % of 0 min. The “Compound Remaining (% of 0 min) 30 min” value ([6]; 30 min) was 1.81 % of 0 min, the “Compound Remaining (% of 0 min) 45 min” value ([6]; 45 min) was 0.13 % of 0 min and the “Compound Remaining (% of 0 min) control” value ([6]; control) was 95.6 % of 0 min. For the same compound, the “Slope Mean ± SE” value ([7]; 3 μM, 37° C., semi-log plot of % remaining versus time, in min-1 (unit assumed)) was 0.001033 ± 0.001249, the “stability in human plasma” value ([7]; repeat measurements) was “stable” and the “Slope Mean ± SE” value ([8]; 3 μM, 37° C., in min-1 (unit assumed)) was −0.000906 ± 0.000706. For the same compound, the half-life at 3 μM ([8]; fresh CD-1 mouse plasma, 3 μM, 37° C., read-out: t1/2 Mean ± SE) was 12.8 ± 9.94 h, the half-life at 3 μM ([8]; read-out: t1/2 (converted)) was ~13 h and the “Slope Mean ± SE” value [1] was −0.00433 ± 0.001287. The half-life ([1]; negative value indicates compound is stable, read-out: t1/2 mean ± SE) was 2.67 ± 0.793 h, the IC50 [2] was 162 nM and the IC50 [3] was 9 nM. For the same compound, the half-life [9] was 2.4 h, the microsomal CLint [9] was 9.63 µL/min/mg and the “Compound Remaining (% of 0 min) 0 min” value ([9]; 0 min) was 100 % of 0 min. For the same compound, the “Compound Remaining (% of 0 min) 5 min” value ([9]; 5 min) was 97.1 % of 0 min, the “Compound Remaining (% of 0 min) 15 min” value ([9]; 15 min) was 90.8 % of 0 min and the “Compound Remaining (% of 0 min) 30 min” value ([9]; 30 min) was 85.7 % of 0 min. The “Compound Remaining (% of 0 min) 45 min” value ([9]; 45 min) was 80.4 % of 0 min, the “Compound Remaining (% of 0 min) control” value ([9]; control) was 94.5 % of 0 min and the “Slope Mean ± SE” value ([10]; dog liver S9) was −0.005558 ± 0.000749. For the same compound, the half-life ([10]; dog liver S9, read-out: t1/2 Mean ± SE) was 2.08 ± 0.28 h, the intrinsic clearance value ([10]; dog liver S9 experiment) was < 2.5 μL/min/mg protein and the microsomal CLint ([10]; liver S9, dog liver S9, read-out: CLint Mean ± SE) was 2.22 ± 0.299 µL/min/mg. The microsomal CLint ([10]; liver S9, dog liver S9 experiment, read-out: intrinsic clearance value) was 2.2 µL/min/mg, the “Slope Mean ± SE” value ([11]; rat liver S9) was −0.03579 ± 0.001471 and the intrinsic clearance value ([11]; rat liver S9, text value) was ~14 μL/min/mg protein. It also gave a half-life ([11]; rat liver S9, read-out: t1/2 Mean ± SE) of 0.323 ± 0.0133 h, a microsomal CLint ([11]; liver S9, rat liver S9, text value, read-out: intrinsic clearance value) of 14.3 µL/min/mg and a microsomal CLint ([11]; liver S9, rat liver S9, read-out: CLint Mean ± SE) of 14.3 ± 0.588 µL/min/mg. For the same compound, the “Slope Mean ± SE” value ([12]; Sprague Dawley rat plasma, 3 μM, 37° C.) was −0.009305 ± 0.001423, the half-life at 3 μM ([12]; Sprague Dawley rat plasma, read-out: t1/2 (converted)) was ~1.2 h and the half-life at 3 μM ([12]; fresh Sprague Dawley rat plasma, 3 μM, 37° C., read-out: t1/2 Mean ± SE) was 1.24 ± 0.19 h. The “Slope Mean ± SE” value ([13]; monkey liver S9) was −0.03881 ± 0.002089, the half-life ([13]; monkey liver S9, read-out: t1/2 Mean ± SE) was 0.298 ± 0.0167 h and the microsomal CLint ([13]; liver S9, monkey liver S9, summary, read-out: S9 intrinsic clearance Clint) was < 2.5 µL/min/mg. The microsomal CLint ([13]; liver S9, monkey liver S9, read-out: CLint Mean ± SE) was 15.5 ± 0.836 µL/min/mg, the microsomal CLint ([13]; liver S9, monkey liver S9 experiment, read-out: intrinsic clearance value) was 15.5 µL/min/mg and the “Slope Mean ± SE” value [4] was −0.006655 ± 0.00081. The half-life [4] was 1.73 ± 0.212 h, the IC50 [5] was 20 nM and the “Slope Mean ± SE” value ([14]; mouse liver S9) was −0.00317 ± 0.000413. For the same compound, the half-life ([14]; mouse liver S9, read-out: t1/2 Mean ± SE) was 3.64 ± 0.475 h, the microsomal CLint ([14]; liver S9, mouse liver S9, summary, read-out: S9 intrinsic clearance Clint) was < 2.5 µL/min/mg and the microsomal CLint ([14]; liver S9, mouse liver S9, text value, read-out: intrinsic clearance value) was 1.27 µL/min/mg. It also gave a microsomal CLint ([14]; liver S9, mouse liver S9, read-out: CLint Mean ± SE) of 1.27 ± 0.165 µL/min/mg.
